In general, IC50 refers to the concentration that gives 50% inhibition. High values mean weaker potency in that assay, low ones greater potency in that assay.

Where only a bound is given, the exact number is not on record here.

For data set [1], the target named is T1, Tyrosinase (Agaricus bisporus, UniProt O42713).
T1 sequence (O42713 whole entry): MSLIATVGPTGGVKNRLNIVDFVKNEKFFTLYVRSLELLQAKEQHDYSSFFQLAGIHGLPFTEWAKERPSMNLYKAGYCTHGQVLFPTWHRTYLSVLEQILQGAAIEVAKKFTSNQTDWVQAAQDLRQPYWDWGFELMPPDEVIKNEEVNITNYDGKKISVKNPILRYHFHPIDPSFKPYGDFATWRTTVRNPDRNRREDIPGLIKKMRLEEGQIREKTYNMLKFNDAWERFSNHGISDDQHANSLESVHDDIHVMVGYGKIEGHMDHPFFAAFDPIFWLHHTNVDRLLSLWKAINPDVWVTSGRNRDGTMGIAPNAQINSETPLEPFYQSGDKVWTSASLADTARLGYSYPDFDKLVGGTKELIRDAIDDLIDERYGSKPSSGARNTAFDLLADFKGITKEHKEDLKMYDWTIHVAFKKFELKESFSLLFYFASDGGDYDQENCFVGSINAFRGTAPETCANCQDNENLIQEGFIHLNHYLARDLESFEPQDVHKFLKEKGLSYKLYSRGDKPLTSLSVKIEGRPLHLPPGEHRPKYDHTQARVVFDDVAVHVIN
The experiment in a line: Inhibition of mushroom tyrosinase using L-DOPA as substrate after 20 mins by spectrophotometry.

The nature of the next data set: in vitro. As to conditions: mouse, Melan-a cells.
A short description of the next data set: cells. As to conditions: Mus musculus, Melan-a, 96 h.
Data set [2] concerns the target T1, Tyrosinase.
Description: Inhibition of mushroom tyrosinase using L-tyrosine as substrate after 20 mins by spectrophotometry

Description for cells: Cytotoxicity against mouse Melan-a cells after 4 days by crystal voilet method
Description for in vitro: Ratio of IC50 for cytotoxicity against mouse Melan-a cells to IC50 for depigmentation in mouse Melan-a cells

On to `O=C(OCc1cc(=O)c(O)co1)c1cc(C23CC4CC(CC(C4)C2)C3)c(O)cc1O`, for which the IC50 against Tyrosinase [1] was > 200 µM; in the data set “cells”, 27.4 µM; on Tyrosinase [2], > 200 µM. The selectivity ratio in the data set “in vitro” is 3.41.
As to `COc1ccc(C(=O)OCc2cc(=O)c(O)co2)cc1`, the IC50 at Tyrosinase [1] is 2.05 µM; in “cells”, > 80 µM; on Tyrosinase [2], 2.03 µM.
Take `COc1cc(OC)c(C23CC4CC(CC(C4)C2)C3)cc1C(=O)OCc1cc(=O)c(O)co1`: the IC50 against Tyrosinase [1] was > 200 µM; in “cells”, 17.6 µM; on Tyrosinase [2] it was > 200 µM. Besides, the selectivity ratio in “in vitro” came out at 4.39.
Take `COc1ccc(C(=O)OCc2cc(=O)c(O)co2)c(OC)c1`: the IC50 at Tyrosinase [1] is 4.8 µM; in the data set “cells” it was > 80 µM; on Tyrosinase [2], 3.23 µM.
In the case of `Oc1ccc(O)cc1` [HYDROQUINONE], in “in vitro”, the selectivity ratio amounted to 3.56. For the same compound, the IC50 came out at 15 µM in the data set “cells” and 10 µM on Tyrosinase [2].
Consider `O=C(OCc1cc(=O)c(O)co1)c1ccc(O)cc1O`, for which the values for the IC50 against Tyrosinase [1], in “cells” and against Tyrosinase [2] were 3.61 µM, > 80 µM and 3.51 µM, respectively.
Turning to `COc1cc(O)c(C(=O)OCc2cc(=O)c(O)co2)cc1C12CC3CC(CC(C3)C1)C2`, the IC50 on Tyrosinase [1] is > 200 µM; in “cells”, 26.8 µM; at Tyrosinase [2] it was > 200 µM. The selectivity ratio in the data set “in vitro” was 3.
As to `O=C(OCc1cc(=O)c(O)co1)c1ccc(O)c(C23CC4CC(CC(C4)C2)C3)c1`, the figures for the IC50 on Tyrosinase [1], in “cells” and against Tyrosinase [2] were > 200 µM, 27.6 µM and > 200 µM, respectively. Moreover, in the data set “in vitro”, the selectivity ratio stood at 7.25.
With `COc1coc(COC(=O)c2ccc(O)c(C34CC5CC(CC(C5)C3)C4)c2)cc1=O`, the selectivity ratio in the data set “in vitro” stood at 6.16. The compound also showed an IC50 in the data set “cells” of 23.8 µM.
Regarding `O=C(OCc1cc(=O)c(O)co1)c1ccc(O)cc1`, the values for the IC50 at Tyrosinase [1], in “cells” and against Tyrosinase [2] were 1.8 µM, > 80 µM and 2.8 µM, respectively.
For `COc1ccc(C(=O)OCc2cc(=O)c(OC)co2)cc1C12CC3CC(CC(C3)C1)C2`, the selectivity ratio in the data set “in vitro” is 6.54. For the same compound, the IC50 in the data set “cells” stood at 31.3 µM.
`COc1ccc(C(=O)OCc2cc(=O)c(O)co2)c(O)c1`: the IC50 was 20.1 µM against Tyrosinase [1], > 80 µM in the data set “cells” and 10.6 µM against Tyrosinase [2].
In the case of `COc1ccc(C(=O)OCc2cc(=O)c(O)co2)cc1C12CC3CC(CC(C3)C1)C2`, the figures for the IC50 against Tyrosinase [1], in “cells” and against Tyrosinase [2] were > 200 µM, 19 µM and > 200 µM, respectively. Also, the selectivity ratio in “in vitro” turned out to be 5.55.

For the origin of these results see ChEMBL document CHEMBL2029205 (Bioorg Med Chem Lett, 2012).
